In patent US10899699B2, “Vinylogous phenethylamines as neurotransmitter releasers” (RESEARCH TRIANGLE INSTITUTE, priority 2016, dated 2021):
Counter-ions that a name gives are not always drawn. Like-named read-outs stand apart in the source and are kept apart here.

Columns and labels:
[1] = target: T1, Dopamine Transporter (DAT) (Rattus norvegicus, UniProt P23977); experiment: DAT release assay, rat brain synaptosomes; assay type: biochemical; conditions: for EC50: release of [3H]MPP+ from rat striatum synaptosomes, mean±SD (n=3)
T1 construct: Synaptosomes were prepared from rat striatum for the DAT assays; from tissue; host or cells: rat striatum synaptosomes
Description: (§1) BAT activity was measured using synaptosomes prepared from rat brain homogenates according to the protocol developed by Rothman and co-workers (Rothman, et al., Eur. J. Pharmacol. 2002, 447(1), 51). Compounds were first screened in uptake inhibition and release assays to determine the exact mode of drug action. […] Substrate reversal experiments were conducted to validate substrate activity. The analogs were also tested for agonist activity at the serotonin-2 receptor subtypes (5-HT2A, 5-HT2B, 5-HT2C) using in vitro calcium mobilization assays in transfected HEK293 cells as previously described. These receptors are associated with the pharmacology of abused drugs, as 5-HT2A agonists are thought to be hallucinogenic while […] are associated with valvular heart disease and pulmonary hypertension; activity at these receptors would be considered off-target liabilities. On the other hand, agonists at 5-HT2C may be beneficial as potential pharmacotherapies for drug abuse and appetite suppression.
(§2) All animal studies were conducted in facilities fully accredited by the Association for the Assessment and Accreditation of Laboratory Animal Care (AAALAC) and experiments were performed in accordance with the Institutional Care and Use Committee (IACUC) of the National Institute on Drug Abuse Intramural Research Program (NIDA IRP). Rats were euthanized by CO2 narcosis, and brains were processed to yield synaptosomes as previously described (Rothman, R B, et al., Eur. J. Pharmacol. 2002, 447(1), 51.). Synaptosomes were prepared from rat striatum for the DAT assays, whereas synaptosomes were prepared from whole brain minus striatum and cerebellum for the NET and SERT assays.
(§3) For release assays, 9 nM [^3H]1-methyl-4-phenylpyridinium ([^3H]MPP+) was used as the radiolabeled substrate for DAT and NET, while 5 nM [^3H]5-HT was used as a substrate for SERT. All buffers used in the release assay methods contained 1 μM reserpine to block vesicular uptake of substrates. The selectivity of release assays was optimized for a single transporter by including unlabeled blockers to prevent the uptake of [^3H]MPP+ or [^3H]5-HT by competing transporters. Synaptosomes were preloaded with radiolabeled substrate in Krebs-phosphate buffer for 1 h (steady state). Release assays were initiated by adding 850 μL of preloaded synaptosomes to 150 μL of test drug. Release was terminated by vacuum filtration and retained radioactivity was quantified as described for uptake inhibition. Concentration-response curves were generated to yield EC50 values.
(§4) Substrate reversal experiments were conducted to validate substrate activity. The releasing ability of test compounds was tested at an EC80 concentration in the absence and presence of an uptake inhibitor (250 nM […] for DAT, 166 nM desipramine for NET, 100 nM fluoxetine for SERT).

[2] = target: T2, Serotonin Transporter (SERT) (Rattus norvegicus, UniProt P31652); experiment: SERT release assay, rat brain synaptosomes; assay type: biochemical; conditions: for EC50: release of [3H]5-HT from rat brain synaptosomes, mean±SD (n=3)
T2 construct: synaptosomes were prepared from whole brain minus striatum and cerebellum for the NET and SERT assays; from tissue; host or cells: rat whole brain minus striatum and cerebellum, synaptosomes
Description: as §1, §2, §3, §4

[3] = target: T3, 5-HT2B (Homo sapiens, UniProt P41595); experiment: 5-HT2B calcium mobilization assay in HEK293 cells (agonist activity); assay type: cell-based; conditions: calcium mobilization, agonist, HEK293; read-out: 5-HT2B EC50, (nM ± SEM)
T3 construct: expressed in transfected cells
Description: (§5) BAT activity was measured using synaptosomes prepared from rat brain homogenates according to the protocol developed by Rothman and co-workers (Rothman, et al., Eur. J. Pharmacol. 2002, 447(1), 51). Compounds were first screened in uptake inhibition and release assays to determine the exact mode of drug action. Compounds active in both assays are releasers while compounds active only in the uptake inhibition assay are uptake inhibitors. Active compounds were then fully characterized by running 8-point concentration response curves in the assay corresponding to their mechanism of action. Substrate reversal experiments were conducted to validate substrate activity. The analogs were also tested for agonist activity at the serotonin-2 receptor subtypes (5-HT2A, 5-HT2B, 5-HT2C) using in vitro calcium mobilization assays in transfected HEK293 cells as previously described. These receptors are associated with the pharmacology of abused drugs, as 5-HT2A agonists are thought to be hallucinogenic while […] are associated with valvular heart disease and pulmonary hypertension; activity at these receptors would be considered off-target liabilities. On the other hand, agonists at 5-HT2C may be beneficial as potential pharmacotherapies for drug abuse and appetite suppression.
(§6) HEK293 cells stably expressing the human 5-HT2A receptor were used. The day before the assay, cells were plated into 96-well black-walled assay plates at 40,000 cells/well in DMEM-HG supplemented with 10% fetal bovine serum, 100 units of penicillin and streptomycin, and 15 mM HEPES. The cells were incubated overnight at 37° C., 5% CO2. Prior to the assay, Calcium 5 dye (Molecular Devices) was reconstituted according to the manufacturer instructions. The reconstituted dye was diluted 1:40 in pre-warmed (37° C.) assay buffer (1×HBSS, 20 mM HEPES, 2.5 mM probenecid, pH 7.4 at 37° C.). Growth medium was removed and the cells were gently washed with 100 μL of pre-warmed (37° C.) assay buffer. The cells were incubated for 45 minutes at 37° C., 5% CO2 in 200 μL of the diluted Calcium 5 dye. Serial dilutions of the test compounds were prepared in 1% DMSO/assay buffer, aliquoted into 96-well polypropylene plates, and warmed to 37° C. After the dye-loading incubation period, the cells were pre-treated with 25 μL of 9% DMSO/assay buffer and incubated for 15 min at 37° C. After the pre-treatment incubation period, the plate was read with a FlexStation® II (Molecular Devices). Calcium-mediated changes in fluorescence were monitored every 1.52 seconds over a 60 second time period, with the FlexStation® II adding 25 μL of test compound dilutions at the 19 second time point (excitation at 485 nm, detection at 525 nm). Peak kinetic reduction (SoftMax, Molecular Devices) relative fluorescent units (RFU) were plotted against compound concentration. Data were fit to the appropriate three-parameter logistic curve to generate EC50 values (GraphPad Prism 6.0, GraphPad Software, Inc., San Diego, Calif.). 5-HT2B and 5-HT2C calcium mobilization assays were run in the same manner with stable 5-HT2B and 5-HT2C HEK293 cells except that 35,000 cells/well were used instead of 40,000 cells/well.

[4] = target: T4, 5-HT2C (Homo sapiens, UniProt P28335); experiment: 5-HT2C calcium mobilization assay in HEK293 cells (agonist activity); assay type: cell-based; conditions: HEK293; for Emax at 10 µM: read-out: 5-HT2C activity relative to the control 5-HT EMAX; for EC50: calcium mobilization, agonist, read-out: 5-HT2C EC50, (nM ± SEM)
T4 construct: expressed in transfected cells
T4 sequence (P28335 33-458): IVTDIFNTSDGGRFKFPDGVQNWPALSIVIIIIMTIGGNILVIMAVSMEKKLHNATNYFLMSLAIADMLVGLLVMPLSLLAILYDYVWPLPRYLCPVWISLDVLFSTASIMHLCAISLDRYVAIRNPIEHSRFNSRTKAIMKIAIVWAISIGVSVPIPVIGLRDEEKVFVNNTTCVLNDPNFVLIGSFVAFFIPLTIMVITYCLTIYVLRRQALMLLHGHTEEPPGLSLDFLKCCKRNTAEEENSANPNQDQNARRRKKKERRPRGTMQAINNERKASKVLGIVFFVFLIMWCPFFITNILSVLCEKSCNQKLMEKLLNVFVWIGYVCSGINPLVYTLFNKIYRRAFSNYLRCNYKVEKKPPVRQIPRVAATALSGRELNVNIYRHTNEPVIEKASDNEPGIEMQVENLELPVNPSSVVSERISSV
Description: as §5, §6

[5] = target: Norepinephrine Transporter (NET) (Rattus norvegicus, UniProt Q9WTR4); assay type: biochemical; conditions: read-out: EC50, (nM ± SD) NET; release of [3H]MPP+ from rat brain synaptosomes; mean±SD (n=3)
[6] = target: T5, human 5-HT2A receptor (Homo sapiens, UniProt P28223); experiment: 5-HT2A calcium mobilization assay in HEK293 cells (agonist activity); assay type: cell-based; conditions: for Emax / EC50: calcium mobilization; for Emax: efficacy
T5 construct: expressed in transfected cells
Description: as §5, §6

[7] = agonist, HEK293, read-out: 5-HT2A EC50, (nM ± SEM)

T1 sequence (P23977 whole entry): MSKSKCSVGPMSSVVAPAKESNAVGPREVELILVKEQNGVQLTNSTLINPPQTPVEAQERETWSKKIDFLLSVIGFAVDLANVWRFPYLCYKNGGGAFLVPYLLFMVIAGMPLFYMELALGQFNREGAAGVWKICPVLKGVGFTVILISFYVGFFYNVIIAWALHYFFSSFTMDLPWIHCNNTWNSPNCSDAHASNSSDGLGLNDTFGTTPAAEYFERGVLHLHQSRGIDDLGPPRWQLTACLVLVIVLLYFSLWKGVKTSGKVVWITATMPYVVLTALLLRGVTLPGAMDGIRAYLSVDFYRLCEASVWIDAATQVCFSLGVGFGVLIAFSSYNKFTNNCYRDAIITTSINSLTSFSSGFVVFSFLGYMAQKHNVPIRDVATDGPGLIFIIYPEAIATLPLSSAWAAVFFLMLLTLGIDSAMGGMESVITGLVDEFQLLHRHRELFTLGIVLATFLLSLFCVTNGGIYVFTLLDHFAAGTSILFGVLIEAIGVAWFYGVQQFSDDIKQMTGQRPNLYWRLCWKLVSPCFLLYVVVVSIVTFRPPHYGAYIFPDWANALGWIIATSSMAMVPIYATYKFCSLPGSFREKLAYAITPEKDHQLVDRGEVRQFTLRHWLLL
T2 sequence (P31652 whole entry): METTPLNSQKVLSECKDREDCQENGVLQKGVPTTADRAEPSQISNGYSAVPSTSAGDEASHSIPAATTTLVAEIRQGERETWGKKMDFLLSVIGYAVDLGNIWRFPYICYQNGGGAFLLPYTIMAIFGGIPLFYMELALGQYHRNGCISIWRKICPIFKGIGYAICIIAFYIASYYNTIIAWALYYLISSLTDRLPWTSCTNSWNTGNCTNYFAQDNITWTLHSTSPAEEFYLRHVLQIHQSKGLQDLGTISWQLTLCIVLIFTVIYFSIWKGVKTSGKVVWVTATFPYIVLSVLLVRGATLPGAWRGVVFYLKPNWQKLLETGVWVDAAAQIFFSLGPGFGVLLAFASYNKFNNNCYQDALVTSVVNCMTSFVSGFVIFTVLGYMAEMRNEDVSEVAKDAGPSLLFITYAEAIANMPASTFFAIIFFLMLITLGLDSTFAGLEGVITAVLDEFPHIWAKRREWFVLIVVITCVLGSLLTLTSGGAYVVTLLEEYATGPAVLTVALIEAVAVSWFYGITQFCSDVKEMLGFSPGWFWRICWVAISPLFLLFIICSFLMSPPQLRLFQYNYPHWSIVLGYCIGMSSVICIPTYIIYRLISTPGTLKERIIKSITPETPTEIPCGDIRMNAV
T3 sequence (P41595 whole entry): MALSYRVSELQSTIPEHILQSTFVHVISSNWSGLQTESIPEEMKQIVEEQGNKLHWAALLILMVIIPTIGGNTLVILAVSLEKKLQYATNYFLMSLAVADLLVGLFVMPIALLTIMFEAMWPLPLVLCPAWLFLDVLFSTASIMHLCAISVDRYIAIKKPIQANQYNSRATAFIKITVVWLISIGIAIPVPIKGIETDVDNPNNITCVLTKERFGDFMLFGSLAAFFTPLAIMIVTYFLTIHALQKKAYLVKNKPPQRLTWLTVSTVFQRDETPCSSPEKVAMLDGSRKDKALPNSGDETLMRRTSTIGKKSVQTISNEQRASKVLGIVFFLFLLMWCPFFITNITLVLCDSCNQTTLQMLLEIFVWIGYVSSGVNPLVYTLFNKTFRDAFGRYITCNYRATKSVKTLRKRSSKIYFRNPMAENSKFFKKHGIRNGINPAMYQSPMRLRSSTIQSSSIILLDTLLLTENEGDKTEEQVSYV
T5 sequence (P28223 whole entry): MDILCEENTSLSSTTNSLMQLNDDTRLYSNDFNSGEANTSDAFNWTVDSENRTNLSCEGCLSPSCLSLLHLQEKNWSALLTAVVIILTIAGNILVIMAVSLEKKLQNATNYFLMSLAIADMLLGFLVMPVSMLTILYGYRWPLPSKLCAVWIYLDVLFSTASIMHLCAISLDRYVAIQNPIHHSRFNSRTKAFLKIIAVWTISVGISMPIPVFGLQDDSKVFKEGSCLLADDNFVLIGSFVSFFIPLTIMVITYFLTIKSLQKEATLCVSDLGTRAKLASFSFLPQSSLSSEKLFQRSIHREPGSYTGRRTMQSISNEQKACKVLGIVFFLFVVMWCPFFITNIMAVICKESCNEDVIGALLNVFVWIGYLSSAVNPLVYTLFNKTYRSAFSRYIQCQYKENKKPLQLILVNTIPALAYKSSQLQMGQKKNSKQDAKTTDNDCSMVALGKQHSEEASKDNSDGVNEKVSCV

Row | SMILES | EC50 [1] [nM] | EC50 [2] [nM] | EC50 [3] [nM] | EC50 [4] [nM] | EC50 [5] [nM] | melting point [°C] | further results
1 | CC(N)C/C=C\c1ccccc1 (racemic) [compound 8, (3Z)-1-Methyl-4-phenyl-but-3-enylamine] | 900 ± 100 | 646 | > 10000 | > 10000 | 621 ± 190 |  | potency for releasing 5-HT relative to DA (SERT/DAT selectivity) [2]: 1.4 fold; Emax at 10 µM [4]: < 50%; Emax ([6]; HEK293): 90%; EC50 [6, 7]: 1860 nM
2 | CC(N)CC#Cc1ccccc1 (racemic) [compound 4, 1-Methyl-4-phenyl-but-3-ynylamine] | 997 | 384 ± 110 | > 10000 | > 10000 | 2980 |  | potency at releasing DA compared to NE [1]: 3 fold; selectivity for releasing 5-HT compared to DA, given as fold more potent at the DAT [1]: 2.6 fold; EC50 [6, 7]: > 10000 nM; EC50 ([6]; read-out: 5-HT2A EC50): > 10000 nM
3 | C[C@@H](N)C/C=C/c1ccccc1 (as salt: hydrochloride) [R-6, (1R,3E)-1-Methyl-4-phenyl-but-3-enylamine] |  |  |  |  |  | 172 to 174 | 
4 | C[C@@H](N)C/C=C\c1ccccc1 (as salt: hydrochloride) [R-8, (1R,3Z)-1-Methyl-4-phenyl-but-3-enylamine] |  |  |  |  |  | 83 to 84 | 
5 | C[C@@H](N)CC#Cc1ccccc1 [R-4, (1R)-1-Methyl-4-phenyl-but-3-ynylamine] | 660 ± 190 | 288 | > 10000 | > 10000 | 496 |  | selectivity for releasing 5-HT compared to DA, given as fold more potent at the DAT [1]: 2.3 fold
6 | C[C@@H](N)CC#Cc1ccccc1 (as salt: hydrochloride) [R-4, (1R)-1-Methyl-4-phenyl-but-3-ynylamine] |  |  |  |  |  | 143 to 144 | 
7 | CC(N)CC#Cc1ccccc1 (racemic) (as salt: hydrochloride) [compound 4, 1-Methyl-4-phenyl-but-3-ynylamine] |  |  |  |  |  | 131 to 132 | 
8 | CC(N)/C=C/c1ccccc1 (centres unmarked) (as salt: hydrochloride) [compound 10, (2E)-1-Methyl-3-phenyl-prop-2-enylamine] |  |  |  |  |  | 151 to 152 | 
9 | C[C@H](N)C/C=C\c1ccccc1 [S-8, (1S,3Z)-1-Methyl-4-phenyl-but-3-enylamine] | 304 | 863 ± 86 | > 10000 |  | 170 |  | potency for releasing DA relative to 5-HT [1]: 2.2 fold; Emax at 10 µM [4]: < 50%; Emax ([6]; HEK293): 102%; EC50 [6, 7]: 1600 nM
10 | CC(N)C/C=C/c1ccccc1 (racemic) (as salt: hydrochloride) [compound 6, (3E)-1-Methyl-4-phenyl-but-3-enylamine] |  |  |  |  |  | 147 to 148 | 
11 | CC(N)/C=C\c1ccccc1 (centres unmarked) (as salt: hydrochloride) [compound 11, (2Z)-1-Methyl-3-phenyl-prop-2-enylamine] |  |  |  |  |  | 149 to 151 | 
12 | CC(N)C/C=C\c1ccccc1 (racemic) (as salt: hydrochloride) [compound 8, (3Z)-1-Methyl-4-phenyl-but-3-enylamine] |  |  |  |  |  | 115 to 117 | 
13 | C[C@H](N)C/C=C\c1ccccc1 (as salt: hydrochloride) [S-8, (1S,3Z)-1-Methyl-4-phenyl-but-3-enylamine] |  |  |  |  |  | 83 to 84 | 
14 | C[C@H](N)CC#Cc1ccccc1 (as salt: hydrochloride) [S-4, (1S)-1-Methyl-4-phenyl-but-3-ynylamine] |  |  |  |  |  | 141 to 142 | 
15 | C[C@H](N)CC#Cc1ccccc1 [S-4, (1S)-1-Methyl-4-phenyl-but-3-ynylamine] | 443 | 756 ± 79 | > 10000 | > 10000 | 784 ± 190 |  | potency for releasing 5-HT relative to DA (SERT/DAT selectivity) [2]: essentially equipotent; fold reduction in potency at 5-HT2A compared to 8 [6]: 2.7 fold; Emax ([6]; HEK293): ~80%; EC50 [6, 7]: 4950 ± 1400 nM
16 | C[C@H](N)C/C=C/c1ccccc1 (as salt: hydrochloride) [S-6, (1S,3E)-1-Methyl-4-phenyl-but-3-enylamine] |  |  |  |  |  | 172 to 173 | 
17 | C[C@@H](N)C/C=C/c1ccccc1 [R-6, (1R,3E)-1-Methyl-4-phenyl-but-3-enylamine] | 540 | 109 ± 29 | > 10000 | > 10000 | 279 ± 24 |  | 
18 | CC(N)C/C=C/c1ccccc1 (racemic) [compound 6, (3E)-1-Methyl-4-phenyl-but-3-enylamine] | 272 ± 44 | 54 ± 8 | > 10000 | > 10000 | 239 ± 59 |  | fold reduction in potency at 5-HT2A compared to 8 [6]: 3 fold; Emax ([6]; HEK293): ~80%; EC50 [6, 7]: 5620 ± 1700 nM
